Experimental data reported in publication PMC6396024, “Artemin and an Artemin-Derived Peptide, Artefin, Induce Neuronal Survival, and Differentiation Through Ret and NCAM” (Frontiers in Molecular Neuroscience, 2019).
Bridge positions count the residues as written; N and C are the ends. Ends that are not written are not given here. I, II: the chains in the order shown.

B1: recombinant human Artemin (ARTN) (ligand, UniProt Q5T4W7 108-220, looked up)
chain: AGGPGSRARAAGARGCRLRSQLVPVRALGLGHRSDELVRFRFCSGSCRRARSPHDLSLASLLGAGALRPPPGSRPVSQPCCRPTRYEAVSFMDVNSTWRTVDRLSATACGCLG
notes: Artemin (ARTN), human, UniProt D3DPX9; source: bought: R&D Systems

Key:
[1] = system: FGFR; cerebellar granule neurons (CGNs); assay: Neurite outgrowth in CGNs with FGFR-inhibitor SU5402; type: cell-based, Wistar rat; details: SU5402 20, 40, 80 μM; ARTN 0.21 nM or artefin 1.4 μM; p < 0.01
Experimental: (§1) Cerebellar granule neurons (CGNs) were prepared from 7-day-old Wistar rat pups (Charles River Laboratories, Sulzfeld, Germany) as previously described ([Schousboe et al., 1989]). Briefly, pups were decapitated, and the cerebellum was removed and cleared from blood vessels and meninges in ice-cold modified Krebs-Ringer buffer. The cerebellum was dissociated by chopping and trypsinization. Cells were washed in Krebs-Ringer buffer containing DNAse I (Sigma, St. Louis, MO, United States) and soybean trypsin inhibitor (Sigma) to stop trypsinization, and the remaining tissue pieces were pelleted by centrifugation. Cells were then washed in Krebs-Ringer buffer containing Ca^2+ and Mg^2+ and re-suspended in appropriate Neurobasal^TM medium (Invitrogen, Taastrup, Denmark) with supplements depending on the experiment.
Cerebellar granule neurons CGNs were re-suspended in Neurobasal^TM medium supplemented with 2% (v/v) B27, 0.5% (v/v) glutamax, 100 U/ml penicillin, 100 μg/ml streptomycin, 0.4% (w/v) BSA, and 20 mM HEPES and were seeded in 8-well LabTek Permanox chamber slides (Nunc) at a density of 1 × 10^4 cells/cm^2. Various concentrations of ARTN, artefin, scrambled artefin, or reversed artefin were added to neurons immediately after seeding. For the RET inhibition assay, the inhibitory goat anti-mouse RET antibody (4.1 μg/ml; R&D systems, Abingdon, United Kingdom) or control goat IgG (4.1 μg/ml; Santa Cruz Biotechnology, Dallas, TX, United States) were added to neurons 1 h before stimulation with ARTN (0.042 nM) […]. For the competition assay between growth factor and mimetic peptide, a combination of ARTN (2.1 nM) and artefin (4.2 μM) was added to the cells immediately after seeding. […]
To estimate neurite outgrowth, neurons were fixated 24 h after stimulation and stained with rabbit anti-growth-associated-protein-43 (GAP-43) antibody (Chemicon International, Inc., Temecula, CA, United States) or anti-GFP antibody (for transfection experiment) overnight at 4°C followed by incubation with secondary Alexa-conjugated goat anti-rabbit antibodies (Invitrogen, Taastrup, Denmark). In case of experiments with plasmid transfection, the transfection efficiency was ca. 20% of total cells and the neurite outgrowth was evaluated only in GFP-positive, i.e., transfected, cells. […]
Computer-assisted fluorescent microscopy was performed using a Nikon Diaphot 300 inverted microscope (Nikon) equipped with a Nikon Plan 20× objective and coupled to a video camera (Grundig Electronics, Germany). For each condition in each experiment, including the experiment with transfections, images of approximately 200 cells were recorded in systematic series of fields of view, and neurite outgrowth was quantified using a stereological approach as previously described ([Rønn et al., 2000]). […]

[2] = system: cerebellar granule neurons (CGNs); assay: Survival assay of CGNs induced to undergo apoptosis by potassium withdrawal; type: cell-based, Wistar rat; details: for neuronal survival in apoptotic medium: 48 h, 5 mM KCl, serially diluted ARTN or artefin, paired t-test; for maximal neuroprotective effect / maximum level of neuronal survival: control 40 mM KCl = 100%, mean of five experiments
Experimental: as §1
Cerebellar granule neurons were re-suspended in Neurobasal^TM-A medium supplemented with 2% (v/v) B27 (Invitrogen, Taastrup, Denmark), 0.5% (v/v) glutamax, 100 U/ml penicillin, 100 μg/ml streptomycin, and 40 mM KCl, and seeded at a density of 1 × 10^5 cells/well in 8-well LabTek Permanox chamber slides (Nunc, Roskilde, Denmark) coated with poly-L-lysine (10 μg/ml). To avoid proliferation of non-neuronal cells, cytosine-β-D-arabinofuranoside (Sigma) was added to cells 24 h after plating. CGNs were allowed to differentiate for 7 days in vitro (DIV) in the presence of 40 mM KCl before being induced to undergo apoptosis by changing the medium to one containing only 5 mM KCl (apoptotic medium) ([D’Mello et al., 1993]). At 7 DIV, cells were washed and stimulated with serially diluted ARTN or artefin diluted in the apoptotic medium. Three different controls were included; (1) cells grown in medium containing 40 mM KCl served as a positive control; (2) cells grown in medium containing 5 mM KCl served as a negative control; (3) cells grown in medium containing 5 mM KCl supplemented with 50 ng/ml insulin growth factor-1 (IGF-1) (Life Technology), a known anti-apoptotic factor for CGNs in this setup ([Galli et al., 1995]). After 48 h following the induction of apoptosis, cells were fixated in 4% formaldehyde for 30 min, and nuclear morphology was visualized with Hoechst 33258 staining (Invitrogen, Taastrup, Denmark) (Figure 2A). Images of cells were obtained using a Nikon Diaphot 200 fluorescent microscope equipped with a Nikon Plan 40× objective (Nikon, Tokyo, Japan) and coupled to a black-white video camera. Images of at least 1000 cells/well in different fields of view were analyzed, and the percentage of viable neurons was estimated as the ratio of live cells (non-pyknotic cells with dispersed chromatin) to the total number of neurons.
FIGURE 2 Effect of ARTN and artefin on survival of cerebellar granular neurons (CGNs) induced to undergo apoptosis. CGNs were differentiated for 7 days in the presence of 40 mM KCl before apoptosis was induced by potassium withdrawal. (A) Nuclear morphology of CGNs after Hoechst 33258 staining. […] Scale bar: 100 μm. Cells were grown for 48 h in media, containing 40 mM KCl, apoptotic medium (5 mM KCl) or apoptotic medium supplemented with 50 ng/ml IGF-1 (positive control) (B), serially diluted ARTN (C), or artefin (D). Each experiment was performed in the presence of the three controls (40 mM KCl, 5 mM KCl, and 5 mM KCl plus IGF-1), and the survival effect of the growth factor and the peptide was compared to its own apoptotic control (5 mM KCl). Results from the five experiments are expressed as percentage of 40 mM KCl control set at 100% and presented as mean ± SEM. The anti-apoptotic effect of ARTN and artefin was tested using Student’s paired t-test, where ^∗p < 0.05; ^∗∗p < 0.01; ^∗∗∗p < 0.001; ^∗∗∗∗p < 0.0001.

[3] = 48 h in apoptotic medium (5 mM KCl)

| Molecule | neurite outgrowth effect in the presence of SU5402 [1] | neuronal survival in apoptotic medium [2] | concentration of maximum neuronal survival [2, 3] | maximal neuroprotective effect / maximum level of neuronal survival [2, 3] | concentration of maximal neuroprotective effect [2, 3] |
| --- | --- | --- | --- | --- | --- |
| I: RSPHDLSLASLLGAGKK-NH2 / II: RSPHDLSLASLLGAGK / III: RSPHDLSLASLLGAG / IV: RSPHDLSLASLLGAG (amide I:16-IV:C, I:17-II:C, II:16-III:C; C-terminus assumed) [artefin] | dose-dependently inhibited the neurite outgrowth effect of artefin | significantly promoted neuronal survival | 0.156 µM | 72.95 % of control |  |
| B1 | completely abolished in the presence of serially diluted inhibitor | promoted the survival of CGNs in culture in a dose-dependent manner |  | 68.3 % of control | 4 pM |
